Measured values reported in ChEMBL document CHEMBL4715888, “Synthetic approaches to unsymmetrical 2,5-disubstituted 1,3,4-oxadiazoles and their MAO-B inhibitory activity. A review” (Bioorg Med Chem, 2021).

Experiments:
[1] = biological target: T1, Amine oxidase [flavin-containing] B (Rattus norvegicus, UniProt P19643); assay: Competitive inhibition of Sprague-Dawley rat brain mitochondrial MAO-B using PEA as substrate by Lineweaver-Burk plot analysis
T1 sequence (P19643 whole entry): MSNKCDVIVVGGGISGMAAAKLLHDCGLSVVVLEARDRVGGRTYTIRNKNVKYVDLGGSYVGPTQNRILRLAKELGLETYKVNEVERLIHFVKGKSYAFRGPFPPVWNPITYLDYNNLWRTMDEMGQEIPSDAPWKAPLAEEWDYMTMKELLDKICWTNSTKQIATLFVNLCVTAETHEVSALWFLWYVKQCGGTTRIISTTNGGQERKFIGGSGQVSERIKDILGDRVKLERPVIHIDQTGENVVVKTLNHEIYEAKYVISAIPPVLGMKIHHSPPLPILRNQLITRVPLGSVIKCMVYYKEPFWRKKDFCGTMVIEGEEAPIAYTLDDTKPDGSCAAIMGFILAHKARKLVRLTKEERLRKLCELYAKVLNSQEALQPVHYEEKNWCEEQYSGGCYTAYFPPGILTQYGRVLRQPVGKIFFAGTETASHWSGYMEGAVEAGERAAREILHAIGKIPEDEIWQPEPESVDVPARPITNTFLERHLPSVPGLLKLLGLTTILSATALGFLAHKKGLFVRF

[2] = biological target: T1, Amine oxidase [flavin-containing] B; assay: Inhibition of Sprague-Dawley rat brain mitochondrial MAO-B using PEA as substrate preincubated for 60 mins; settings: read-out: Kieq
Rattus norvegicus = species: Rattus norvegicus; assay: Selectivity ratio of IC50 for Sprague-Dawley rat brain mitochondrial MAO-A to IC50 for Sprague-Dawley rat brain mitochondrial MAO-B
[3] = biological target: T2, Amine oxidase [flavin-containing] A (Rattus norvegicus, UniProt P21396); assay: Inhibition of Sprague-Dawley rat brain mitochondrial MAO-A using [14C]-5-HT as substrate by radioassay method
T2 sequence (P21396 whole entry): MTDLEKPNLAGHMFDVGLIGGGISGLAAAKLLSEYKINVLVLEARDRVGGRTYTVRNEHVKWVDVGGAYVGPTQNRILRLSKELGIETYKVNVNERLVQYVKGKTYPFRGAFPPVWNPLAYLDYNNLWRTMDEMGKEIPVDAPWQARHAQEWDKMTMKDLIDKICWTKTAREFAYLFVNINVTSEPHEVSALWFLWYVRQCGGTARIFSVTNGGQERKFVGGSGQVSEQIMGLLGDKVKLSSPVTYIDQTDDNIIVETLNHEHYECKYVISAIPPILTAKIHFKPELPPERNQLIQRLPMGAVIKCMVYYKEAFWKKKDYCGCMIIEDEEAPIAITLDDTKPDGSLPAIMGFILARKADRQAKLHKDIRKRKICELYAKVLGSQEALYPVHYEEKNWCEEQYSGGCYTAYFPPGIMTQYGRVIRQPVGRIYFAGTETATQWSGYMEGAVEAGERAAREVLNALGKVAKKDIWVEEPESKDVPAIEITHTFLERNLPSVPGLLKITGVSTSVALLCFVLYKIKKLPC

[4] = biological target: T1, Amine oxidase [flavin-containing] B; assay: Inhibition of Sprague-Dawley rat brain mitochondrial MAO-B using [14C]-PEA as substrate by radioassay method
[5] = biological target: T1, Amine oxidase [flavin-containing] B; assay: Inhibition of Sprague-Dawley rat brain mitochondrial MAO-B using [14C]-PEA as substrate preincubated for 60 mins by radiochemical method
[6] = biological target: T1, Amine oxidase [flavin-containing] B; assay: Inhibition of Sprague-Dawley rat brain mitochondrial MAO-B using [14C]-PEA as substrate preincubated for 120 mins by radiochemical method

N#CCCn1nc(-c2ccc(OCc3ccccc3)cc2)oc1=O
Ki [1]: 220 nM | Ki [2]: 0.7 nM | Ratio IC50 (Rattus norvegicus): > 71400

N#CCCn1nc(-c2ccc(-c3ccccc3)cc2)oc1=S
IC50 [3]: 22500 nM | IC50 [4]: 74 nM | Ratio IC50 (Rattus norvegicus): 304

N#CCCn1nc(-c2ccc(-c3ccccc3)cc2)oc1=O
IC50 [3]: 7800 nM | IC50 [4]: 56 nM | Ratio IC50 (Rattus norvegicus): 139

O=c1oc(-c2ccc(OCc3ccccc3)cc2)nn1CCO
IC50 [5]: 4.7 nM | IC50 [6]: 4.7 nM | Ratio IC50 (Rattus norvegicus): > 30400

N#CCCn1nc(-c2ccc(OCc3ccccc3)cc2)oc1=S
Ratio IC50 (Rattus norvegicus): > 3200
